Source: the RepoRT retention time repository

Test: Agilent ZORBAX 300 SB-C18, 150 × 1 mm, 3.5 µm; A: water + 0.01% heptafluorobutyric acid; B: acetonitrile + 0.01% heptafluorobutyric acid; gradient (min/%B) 0/0 100/90
Conditions: stereoisomer not certain

LC retention time [min] | Compound
11.7 | Cc1c(C(=O)Nc2ccccn2)c(C(C)N=Nc2ccccc2)cc(=O)n1-c1ccccn1 (stereo not given)
12.4 | Nc1ccccc1C(=O)N1CCc2ccccc21
4.4 | Nc1ccn(CC(O)CO)c(=O)n1 (stereo not given)
5.95 | CCNC(=O)CC(=O)NCC
12.9 | Cn1c(C(c2ccccc2)c2ccccc2)n[nH]c1=S
21.3 | CC(C)(C)c1ccc(-c2nc3ccccc3s2)cc1
6.91 | Cc1cc(N)cc(C)c1O
8.67 | Cc1ccc2ccc3ccc(C)nc3c2n1
9.29 | O=C(c1ccccc1O)N1CCCC1
7.19 | CN(C)CCCN(C)C
5.27 | Cn1ccc(C(=O)O)cc1=O
14.4 | CCOc1cc(C(=O)Nc2ccc(OC)c(OC)c2)cc(OCC)c1OCC
6.82 | Cc1ccncc1C
8.28 | Cc1n[nH]c(=O)nc1NC1CCCCC1
7.66 | CC(=O)N=Nc1c(O)[nH]c2ccccc12
7.01 | NC1CCCCC1N (stereo not given)
6.38 | C1CNCCN1
14.5 | Nc1cccc2cc(-c3ccccc3)oc12
7.81 | CCC(NC(C)C)C(O)c1ccc(O)c2[nH]c(=O)ccc12 (stereo not given)
11.2 | CC(C)(C)c1ccc(C(=O)Nc2ccc(N)cc2)cc1
17.5 | COc1ccc2ccccc2c1C=NNC(=O)C(c1ccccc1)c1ccccc1
14.4 | Cc1cc(C)c2c(=O)n(CC(=O)NCCC(C)C)c(=O)n(-c3ccccc3)c2n1

LC retention time [min] | Compound
5.91 | Cc1cccnn1
12.4 | O=C1CC(N2CCN(C(c3ccccc3)c3ccccc3)CC2)C(=O)N1c1cccc2ccccc12 (stereo not given)
7.25 | COC(=O)CCCCCN
7.71 | CC1(C)CC(NCC(=O)NC2CC(C)(C)NC(C)(C)C2)CC(C)(C)N1
20.1 | c1ccc(-n2c3c(c4ccccc42)CCC3)cc1
6.88 | CCNCCNCC
9.71 | c1ccc(CNCc2ccccc2)cc1
12.1 | O=C(NC(c1ccccc1)c1ccccc1)c1cccnc1
8.52 | CC1(C)CC(=O)C=C(NCC2NCCc3ccccc32)C1 (stereo not given)
17.2 | O=C(NCCCCc1ccccc1)c1ccc2ccccc2n1
6.48 | CC1CNCCN1 (stereo not given)
7.69 | Cc1cccnc1CN1CCN(Cc2ncccc2C)CC1
7.39 | OCC1Cc2ccccc2CN1 (stereo not given)
9.31 | O=c1ccoc2ccccc12
8.94 | CC(CCc1ccc(O)cc1)NCCc1ccc(O)c(O)c1 (stereo not given)
11.4 | O=C(Nc1ccc(Cc2ccncc2)cc1)c1ccc2ccccc2n1
8.6 | CC(C)CNC(=O)C(=O)NC1CC(C)(C)NC(C)(C)C1
7.57 | NCCCCCCCCCCN
10.2 | CCCC(CCC)C(=O)NC1CCN(Cc2ccccc2)CC1
10.7 | CCOC(=O)c1cnc2ccccc2n1
10.3 | Cc1cc(C)nc(NC(N)=NCCC(C)C)n1
9.04 | CCCc1ccc(N)cc1

LC retention time [min] | Compound
8.43 | Cc1ccnc2c1ccc1cccnc12
14.9 | CCCCCCCNC(=O)c1ccc(OC(C)=O)cc1
9.33 | CC(c1ccccc1)N1CNc2c(c(=O)[nH]c(=O)n2Cc2ccccc2)C1 (stereo not given)
13.3 | Cc1ccc(-c2cc(C(=O)O)c3ccccc3n2)cc1C
8.62 | O=C(NN=CC=NNC(=O)c1ccccn1)c1ccccn1
11.7 | Cn1c(C(=O)N2CCN(C(c3ccccc3)c3ccccc3)CC2)cc(=O)n(C)c1=O
18.4 | CCc1ccc(C(=O)CC(Nc2ccccc2)c2ccccc2)cc1 (stereo not given)
11.1 | CC(=O)c1ccc2c(c1)N(CCCN(C)C)c1ccccc1S2
7.02 | COC(=O)CCN1CCCCC1
9.62 | Cc1cccc(NC(=O)c2ccc3nccnc3c2)n1
9.1 | C=CC1CN2CCC1CC2C(O)c1ccnc2ccc(OC)cc12 (stereo not given)
6.5 | CC(=O)NNc1nc(C)cc(C)n1
10.4 | CN(C)c1ccc(C(=O)N2CCCC2)cc1
11.7 | Cc1ccc(C(=O)NCc2ccco2)cc1
7.81 | CCCNCc1ccc2c(c1)n(C)c(=O)n2C
5.54 | CN1CCCC1
8.89 | COc1ccccc1OCC(=O)N1CCNC1=O
12.5 | CCOc1ccc(N2C(=O)CC(N(Cc3ccc4c(c3)OCO4)C(C)=O)C2=O)cc1 (stereo not given)
10.5 | Cc1ccc(C(=O)c2ccc(CC(=O)O)n2C)cc1
7.63 | CC1C(=O)CC[N+](C)(C)C1C (stereo not given)
7.61 | OCCCCNCc1ccccc1
10.7 | Cc1cc(N)c2ccccc2[n+]1CCCCCCCCCC[n+]1c(C)cc(N)c2ccccc21

LC retention time [min] | Compound
7.76 | NC(=O)C1(N2CCCCC2)CCN(C(=O)c2ccccc2)CC1
8.17 | CCCN(CCC)CCC
12.7 | CCCCCCCCSCCSC(=N)N
10.2 | S=C1NCN(CCC2=CCCCC2)CN1
7.98 | Cc1cc(N)c(N)cc1C
9.15 | O=C1NC(=O)C(c2ccccc2)(c2ccc(O)cc2)N1 (stereo not given)
4.28 | OCc1cccnc1
16.9 | CC1CCc2[nH]c3ccccc3c2C1 (stereo not given)
9.98 | CC(C)CNC(=O)C(=O)Nc1ccc(N(C)C)cc1
13.4 | CCOC(=O)c1c(-c2ccccc2)c[nH]c1C
8.03 | CN(C)c1nc(N)nc(N(C)C)n1
4.79 | O=c1cccc[nH]1
7.07 | C=CCNCC=C
8.8 | c1cc(-c2noc(-c3cnccn3)n2)ccn1
14.9 | c1ccc(-c2ccnc(-c3cc(-c4ccccc4)ccn3)c2)cc1
9.01 | O=C(O)CC(NC(=O)OCc1ccccc1)C(=O)O (stereo not given)
1.22 | Nc1c(S(=O)(=O)O)[nH]c(=O)[nH]c1=O
6.6 | O=C(O)C1CCCN1Cc1ccccc1 (stereo not given)
11.8 | Cc1cccc(Oc2cc(C)nc3ccc(C)cc23)c1
8 | CC(NC(=O)c1ccccc1)C(=O)O (stereo not given)
7.86 | CCC(C)C(NC(=O)C1CCCN1)C(=O)O (stereo not given)
12.4 | c1ccc(N=c2scc(-c3ccccc3)n2-c2ccccc2)cc1

Compound | LC retention time [min]
CN1CCC2(CC1)NC(=O)N(c1ccccc1)N2 | 7.95
c1ccc(CCN(Cc2ccncc2)Cc2ccccn2)cc1 | 8.96
O=c1[nH]c2ccccc2c(=O)n1-c1cccnc1 | 8.1
C=CCC1(C(C)CCC)C(=O)NC(=O)NC1=O (stereo not given) | 11.4
Nc1ccncc1 | 5.68
CCOC1CCC2CC3C4CCC(O)C5OC1C2C45CCN3C (stereo not given) | 8.78
CC(C)CC(C)N (stereo not given) | 7.77
